Like-named read-outs stand apart in the source and are kept apart here.

For data set [1], the system named is Mycobacterium tuberculosis. Particulars: 10 millimolar.
The conditions of data set [2]: liver, water control = 0%.
For data set [3] the following is noted: mouse, in vivo; cited from earlier work.
The conditions of data set [4]: in vivo; cited from earlier work.

Consider `CC(=O)N[C@@H](CS)C(=O)O` [NAC, N-acetyl cysteine], for which, in data set [1], the “CFU/ml reduced to” value is given as 8,000 CFU/ml.

As for `N[C@@H](CCC(=O)N[C@@H](CS)C(=O)NCC(=O)O)C(=O)O` [Plain glutathione, glutathione], the figures for the toxin removal in data set [2] (intravenous) and in data set [2] (oral) were 70% and 10%, respectively. For the same molecule, the “decrease of incidence or size of hepatic nodules or tumors” value in data set [3] was “no benefit”. The “absorption after oral ingestion” value in data set [4] was “not absorbed”.

Values taken from patent US20130202681A1 (priority 2012, published 2013).
